Test results from ChEMBL document CHEMBL3611969, “The effect of complexation of 3-formylrifamycin SV macrocyclic ether derivatives with metal cations and small nitrogen-containing organic molecules on antibacterial activity against S. aureus and S. epidermidis” (Bioorg Med Chem Lett, 2015).
≈ marks a conversion by molar mass, not a printed value.

Legend:
[1] = test system: Staphylococcus aureus; test: Antibacterial activity against Staphylococcus aureus ATCC 6538 after 18 hrs by serial microdilution method; assay type: functional; details: ATCC 6538, 18 h
[2] = test system: Staphylococcus aureus; test: Antibacterial activity against Staphylococcus aureus ATCC 4163 after 18 hrs by serial microdilution method; assay type: functional; details: ATCC 4163, 18 h
[3] = test system: Staphylococcus aureus; test: Antibacterial activity against Staphylococcus aureus ATCC 25923 after 18 hrs by serial microdilution method; assay type: functional; details: ATCC 25923, 18 h
[4] = test system: Staphylococcus epidermidis; test: Antibacterial activity against Staphylococcus epidermidis ATCC 12228 after 18 hrs by serial microdilution method; assay type: functional; details: ATCC 12228, 18 h
[5] = test system: Staphylococcus epidermidis; test: Antibacterial activity against Staphylococcus epidermidis ATCC 49134 after 18 hrs by serial microdilution method; assay type: functional; details: ATCC 49134, 18 h
[6] = Solubility of the compound in water at pH 7; assay type: physicochemical
[7] = Octanol-water partition coefficient, log P of the compound by UV-vis method; assay type: physicochemical
[8] = test system: Staphylococcus aureus; test: Antibacterial activity against Staphylococcus aureus ATCC 6538 after 18 hrs by serial microdilution method in presence of Li+; assay type: functional; details: ATCC 6538, 18 h
[9] = test system: Staphylococcus aureus; test: Antibacterial activity against Staphylococcus aureus ATCC 6538 after 18 hrs by serial microdilution method in presence of Na+; assay type: functional; details: ATCC 6538, 18 h
[10] = test system: Staphylococcus aureus; test: Antibacterial activity against Staphylococcus aureus ATCC 4163 after 18 hrs by serial microdilution method in presence of Li+; assay type: functional; details: ATCC 4163, 18 h
[11] = test system: Staphylococcus aureus; test: Antibacterial activity against Staphylococcus aureus ATCC 4163 after 18 hrs by serial microdilution method in presence of Na+; assay type: functional; details: ATCC 4163, 18 h
[12] = test system: Staphylococcus aureus; test: Antibacterial activity against Staphylococcus aureus ATCC 25923 after 18 hrs by serial microdilution method in presence of Li+; assay type: functional; details: ATCC 25923, 18 h
[13] = test system: Staphylococcus aureus; test: Antibacterial activity against Staphylococcus aureus ATCC 25923 after 18 hrs by serial microdilution method in presence of Na+; assay type: functional; details: ATCC 25923, 18 h
[14] = test system: Staphylococcus epidermidis; test: Antibacterial activity against Staphylococcus epidermidis ATCC 12228 after 18 hrs by serial microdilution method in presence of Li+; assay type: functional; details: ATCC 12228, 18 h
[15] = test system: Staphylococcus epidermidis; test: Antibacterial activity against Staphylococcus epidermidis ATCC 12228 after 18 hrs by serial microdilution method in presence of Na+; assay type: functional; details: ATCC 12228, 18 h
[16] = test system: Staphylococcus epidermidis; test: Antibacterial activity against Staphylococcus epidermidis ATCC 49134 after 18 hrs by serial microdilution method in presence of Li+; assay type: functional; details: ATCC 49134, 18 h
[17] = test system: Staphylococcus epidermidis; test: Antibacterial activity against Staphylococcus epidermidis ATCC 49134 after 18 hrs by serial microdilution method in presence of Na+; assay type: functional; details: ATCC 49134, 18 h
[18] = Solubility of the compound in water at pH 7 in presence of Li+; assay type: physicochemical
[19] = Solubility of the compound in water at pH 7 in presence of Na+; assay type: physicochemical
[20] = Octanol-water partition coefficient, log P of the compound by UV-vis method in presence of Li+; assay type: physicochemical
[21] = Octanol-water partition coefficient, log P of the compound by UV-vis method in presence of Na+; assay type: physicochemical

NCc1ccc(F)cc1
MIC [1]: > 4 µg/mL | MIC [2]: > 4 µg/mL | MIC [3]: > 4 µg/mL | MIC [4]: > 4 µg/mL | MIC [5]: > 4 µg/mL

NCc1ccccc1Cl
MIC [1]: > 4 µg/mL | MIC [2]: > 4 µg/mL | MIC [3]: > 4 µg/mL | MIC [4]: > 4 µg/mL | MIC [5]: > 4 µg/mL

CO[C@H]1/C=C/O[C@@]2(C)Oc3c(C)c(O)c4c(O)c(c(C=O)c(O)c4c3C2=O)NC(=O)/C(C)=C\C=C\[C@H](C)[C@H](O)[C@@H](C)[C@@H](O)[C@@H](C)[C@H](OC(C)=O)[C@@H]1C
MIC [1]: 0.5 µg/mL (≈ 0.689 µM) | MIC [2]: 0.5 µg/mL (≈ 0.689 µM) | MIC [3]: 0.5 µg/mL (≈ 0.689 µM) | MIC [4]: 0.125 µg/mL (≈ 0.172 µM) | MIC [5]: 0.125 µg/mL (≈ 0.172 µM)

CO[C@H]1/C=C/O[C@@]2(C)Oc3c(C)c(O)c4c(O)c(c(CNC5CCOCC5)c(O)c4c3C2=O)NC(=O)/C(C)=C\C=C\[C@H](C)[C@H](O)[C@@H](C)[C@@H](O)[C@@H](C)[C@H](OC(C)=O)[C@@H]1C
MIC [1]: 0.5 µg/mL (≈ 0.617 µM) | MIC [2]: 0.5 µg/mL (≈ 0.617 µM) | MIC [3]: 0.5 µg/mL (≈ 0.617 µM) | MIC [4]: 0.25 µg/mL (≈ 0.308 µM) | MIC [5]: 0.25 µg/mL (≈ 0.308 µM) | solubility [6]: 500 µg/mL (≈ 617 µM) | logP [7]: 2.05

CO[C@H]1/C=C/O[C@@]2(C)Oc3c(C)c(O)c4c(O)c(c(CNCC5CCOCC5)c(O)c4c3C2=O)NC(=O)/C(C)=C\C=C\[C@H](C)[C@H](O)[C@@H](C)[C@@H](O)[C@@H](C)[C@H](OC(C)=O)[C@@H]1C
MIC [1]: 0.5 µg/mL (≈ 0.606 µM) | MIC [2]: 0.5 µg/mL (≈ 0.606 µM) | MIC [3]: 0.5 µg/mL (≈ 0.606 µM) | MIC [4]: 0.25 µg/mL (≈ 0.303 µM) | MIC [5]: 0.25 µg/mL (≈ 0.303 µM) | solubility [6]: 250 µg/mL (≈ 303 µM) | logP [7]: 2.37

CO[C@H]1/C=C/O[C@@]2(C)Oc3c(C)c(O)c4c(O)c(c(CNCC5COCCOCCOCCOCCO5)c(O)c4c3C2=O)NC(=O)/C(C)=C\C=C\[C@H](C)[C@H](O)[C@@H](C)[C@@H](O)[C@@H](C)[C@H](OC(C)=O)[C@@H]1C (some centres undefined)
MIC [1]: 2 µg/mL (≈ 2.09 µM) | MIC [8]: > 4 µg/mL | MIC [9]: 2 µg/mL | MIC [2]: 4 µg/mL (≈ 4.17 µM) | MIC [10]: 4 µg/mL | MIC [11]: > 4 µg/mL | MIC [3]: > 4 µg/mL | MIC [12]: > 4 µg/mL | MIC [13]: > 4 µg/mL | MIC [4]: 2 µg/mL (≈ 2.09 µM) | MIC [14]: 2 µg/mL | MIC [15]: 4 µg/mL | MIC [5]: 2 µg/mL (≈ 2.09 µM) | MIC [16]: 2 µg/mL | MIC [17]: 4 µg/mL | solubility [6]: 120 µg/mL (≈ 125 µM) | logP [7]: 1.18

CO[C@H]1/C=C/O[C@@]2(C)Oc3c(C)c(O)c4c(O)c(c(CNCC5COCCOCCOCCOCCOCCO5)c(O)c4c3C2=O)NC(=O)/C(C)=C\C=C\[C@H](C)[C@H](O)[C@@H](C)[C@@H](O)[C@@H](C)[C@H](OC(C)=O)[C@@H]1C (some centres undefined)
MIC [1]: 1 µg/mL (≈ 0.997 µM) | MIC [8]: 1 µg/mL | MIC [9]: 2 µg/mL | MIC [2]: 1 µg/mL (≈ 0.997 µM) | MIC [10]: 1 µg/mL | MIC [11]: 2 µg/mL | MIC [3]: 2 µg/mL (≈ 1.99 µM) | MIC [12]: 2 µg/mL | MIC [13]: 2 µg/mL | MIC [4]: 1 µg/mL (≈ 0.997 µM) | MIC [14]: 1 µg/mL | MIC [15]: 1 µg/mL | MIC [5]: 1 µg/mL (≈ 0.997 µM) | MIC [16]: 1 µg/mL | MIC [17]: 1 µg/mL | solubility [6]: 1000 µg/mL (≈ 997 µM) | logP [7]: 1.76 | solubility [18]: 670 µg/mL | solubility [19]: 600 µg/mL | logP [20]: 1.09 | logP [21]: 1.13

CO[C@H]1/C=C/O[C@@]2(C)Oc3c(C)c(O)c4c(O)c(c(CN5CCOCCOCCOCCOCC5)c(O)c4c3C2=O)NC(=O)/C(C)=C\C=C\[C@H](C)[C@H](O)[C@@H](C)[C@@H](O)[C@@H](C)[C@H](OC(C)=O)[C@@H]1C
MIC [1]: 4 µg/mL (≈ 4.31 µM) | MIC [2]: 4 µg/mL (≈ 4.31 µM) | MIC [3]: > 4 µg/mL | MIC [4]: > 4 µg/mL | MIC [5]: > 4 µg/mL | solubility [6]: 1600 µg/mL (≈ 1720 µM) | logP [7]: -0.92
